Data on ten compounds can be found in publication doi:10.1101/2023.03.24.534094v2 (biorxiv, 2023).

Where two headings read alike, the source gives them in different places.

What all share (experiment): biochemical
Assay [1] has as its target CHK2 (Homo sapiens, UniProt O96017).
Assay [2] addresses T1, SRC (Homo sapiens, UniProt P12931).
Assay [3] has as its target T2, CASK (Homo sapiens, UniProt O14936).
T2 sequence (O14936 1-926): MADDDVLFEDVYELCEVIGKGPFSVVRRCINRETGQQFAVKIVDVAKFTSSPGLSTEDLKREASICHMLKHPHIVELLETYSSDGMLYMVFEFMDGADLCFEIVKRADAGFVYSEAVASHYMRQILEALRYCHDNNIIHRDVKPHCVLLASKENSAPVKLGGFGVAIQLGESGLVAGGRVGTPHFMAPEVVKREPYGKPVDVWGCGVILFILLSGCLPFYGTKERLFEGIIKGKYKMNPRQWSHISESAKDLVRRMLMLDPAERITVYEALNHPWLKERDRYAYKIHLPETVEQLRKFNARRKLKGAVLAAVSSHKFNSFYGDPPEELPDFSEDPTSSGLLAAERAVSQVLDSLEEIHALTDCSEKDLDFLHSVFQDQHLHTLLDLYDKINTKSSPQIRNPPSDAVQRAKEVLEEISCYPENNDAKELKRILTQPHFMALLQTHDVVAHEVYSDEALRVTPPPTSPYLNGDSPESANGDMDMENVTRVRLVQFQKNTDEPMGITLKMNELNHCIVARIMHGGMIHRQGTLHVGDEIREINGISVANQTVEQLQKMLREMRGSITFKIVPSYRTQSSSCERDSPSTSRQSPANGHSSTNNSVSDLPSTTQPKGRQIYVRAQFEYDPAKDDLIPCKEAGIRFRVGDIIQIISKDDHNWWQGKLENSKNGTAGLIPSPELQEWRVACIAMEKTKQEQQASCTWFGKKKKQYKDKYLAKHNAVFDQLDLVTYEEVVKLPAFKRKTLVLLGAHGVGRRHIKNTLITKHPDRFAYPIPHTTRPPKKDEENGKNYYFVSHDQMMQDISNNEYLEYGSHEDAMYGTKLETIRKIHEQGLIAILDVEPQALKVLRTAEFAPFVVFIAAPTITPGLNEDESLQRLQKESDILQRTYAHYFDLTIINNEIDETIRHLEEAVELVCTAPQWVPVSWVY

The target of assay [4] is CK1d (Homo sapiens, UniProt P48730).
Assay [5] deals with T1, SRC. The source holds these as a separate data set.
Assay [6] addresses EpHA2 (Homo sapiens, UniProt P29317).
Assay [7] has as its target JNK1 (Homo sapiens, UniProt P45983).
The target in assay [8] is T3, TTK (Homo sapiens, UniProt P33981).
T3 sequence (P33981 1-857): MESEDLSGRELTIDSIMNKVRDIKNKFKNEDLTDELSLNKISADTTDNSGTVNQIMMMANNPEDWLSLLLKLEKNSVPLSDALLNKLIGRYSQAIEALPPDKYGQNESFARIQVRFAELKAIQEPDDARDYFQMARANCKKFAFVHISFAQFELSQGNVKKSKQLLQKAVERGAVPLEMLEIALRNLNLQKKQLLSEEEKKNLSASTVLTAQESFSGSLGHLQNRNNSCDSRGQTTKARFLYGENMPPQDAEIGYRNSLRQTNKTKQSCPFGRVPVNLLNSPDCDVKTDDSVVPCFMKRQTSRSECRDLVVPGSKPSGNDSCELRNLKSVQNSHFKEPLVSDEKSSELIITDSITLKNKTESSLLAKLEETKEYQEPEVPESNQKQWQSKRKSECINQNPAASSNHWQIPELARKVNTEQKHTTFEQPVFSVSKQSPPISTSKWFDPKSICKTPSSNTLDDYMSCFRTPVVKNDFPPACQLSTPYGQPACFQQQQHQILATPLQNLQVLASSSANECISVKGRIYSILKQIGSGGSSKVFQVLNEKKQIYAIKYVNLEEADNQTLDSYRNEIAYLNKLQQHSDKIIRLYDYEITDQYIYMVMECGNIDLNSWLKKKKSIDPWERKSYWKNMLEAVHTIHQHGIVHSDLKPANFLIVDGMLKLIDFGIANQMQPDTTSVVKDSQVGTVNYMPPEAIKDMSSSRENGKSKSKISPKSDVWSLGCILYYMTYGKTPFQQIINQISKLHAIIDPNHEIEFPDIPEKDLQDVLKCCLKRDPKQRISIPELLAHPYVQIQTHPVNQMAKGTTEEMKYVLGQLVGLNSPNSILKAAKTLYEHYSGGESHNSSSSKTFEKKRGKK

The target in assay [9] is SRPK1 (Homo sapiens, UniProt Q96SB4).
Chain of SRPK1 (Q96SB4 whole entry): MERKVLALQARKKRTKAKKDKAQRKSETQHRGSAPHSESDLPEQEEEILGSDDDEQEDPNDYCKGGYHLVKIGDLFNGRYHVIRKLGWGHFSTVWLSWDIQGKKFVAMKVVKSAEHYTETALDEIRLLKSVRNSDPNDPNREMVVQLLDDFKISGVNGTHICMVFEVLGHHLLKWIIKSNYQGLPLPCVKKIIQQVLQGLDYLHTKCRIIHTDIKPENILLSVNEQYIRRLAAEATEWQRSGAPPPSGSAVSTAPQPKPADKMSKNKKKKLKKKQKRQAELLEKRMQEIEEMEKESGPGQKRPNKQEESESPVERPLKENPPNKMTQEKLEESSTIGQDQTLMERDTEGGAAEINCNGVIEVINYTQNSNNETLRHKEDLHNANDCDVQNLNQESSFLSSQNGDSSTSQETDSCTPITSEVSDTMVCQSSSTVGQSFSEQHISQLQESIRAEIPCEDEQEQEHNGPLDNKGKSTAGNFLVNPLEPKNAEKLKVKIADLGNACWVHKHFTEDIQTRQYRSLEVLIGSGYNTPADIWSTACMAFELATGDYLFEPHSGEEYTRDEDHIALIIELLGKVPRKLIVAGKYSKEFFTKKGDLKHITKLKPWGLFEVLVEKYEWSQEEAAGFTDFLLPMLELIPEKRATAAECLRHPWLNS

Chain of CHK2 (O96017 whole entry): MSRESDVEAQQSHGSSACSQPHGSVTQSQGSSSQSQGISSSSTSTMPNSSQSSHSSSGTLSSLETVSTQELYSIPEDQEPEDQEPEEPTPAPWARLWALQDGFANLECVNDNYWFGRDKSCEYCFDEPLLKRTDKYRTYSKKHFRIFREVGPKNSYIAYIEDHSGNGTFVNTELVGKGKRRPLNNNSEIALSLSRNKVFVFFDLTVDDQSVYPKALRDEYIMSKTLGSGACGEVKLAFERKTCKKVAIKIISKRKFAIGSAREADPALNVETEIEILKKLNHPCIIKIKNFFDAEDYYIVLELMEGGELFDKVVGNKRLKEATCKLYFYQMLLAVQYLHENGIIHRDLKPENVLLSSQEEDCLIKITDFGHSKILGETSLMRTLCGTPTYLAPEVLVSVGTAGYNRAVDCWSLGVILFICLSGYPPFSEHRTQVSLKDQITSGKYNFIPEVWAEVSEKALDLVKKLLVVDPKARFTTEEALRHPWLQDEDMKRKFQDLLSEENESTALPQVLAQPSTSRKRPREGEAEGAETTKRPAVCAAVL
Chain of JNK1 (P45983 whole entry): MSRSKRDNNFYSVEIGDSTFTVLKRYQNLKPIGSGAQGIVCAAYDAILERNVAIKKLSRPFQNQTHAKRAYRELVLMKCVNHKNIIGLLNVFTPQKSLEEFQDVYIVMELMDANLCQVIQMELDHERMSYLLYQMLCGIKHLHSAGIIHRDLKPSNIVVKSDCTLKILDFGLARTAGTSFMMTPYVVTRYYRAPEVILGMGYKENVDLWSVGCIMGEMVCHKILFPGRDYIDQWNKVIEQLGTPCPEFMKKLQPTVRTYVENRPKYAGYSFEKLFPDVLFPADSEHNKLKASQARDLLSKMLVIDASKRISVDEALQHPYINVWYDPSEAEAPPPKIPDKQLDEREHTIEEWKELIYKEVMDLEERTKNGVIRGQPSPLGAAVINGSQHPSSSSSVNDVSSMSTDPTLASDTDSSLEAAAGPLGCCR
T1 sequence (P12931 whole entry): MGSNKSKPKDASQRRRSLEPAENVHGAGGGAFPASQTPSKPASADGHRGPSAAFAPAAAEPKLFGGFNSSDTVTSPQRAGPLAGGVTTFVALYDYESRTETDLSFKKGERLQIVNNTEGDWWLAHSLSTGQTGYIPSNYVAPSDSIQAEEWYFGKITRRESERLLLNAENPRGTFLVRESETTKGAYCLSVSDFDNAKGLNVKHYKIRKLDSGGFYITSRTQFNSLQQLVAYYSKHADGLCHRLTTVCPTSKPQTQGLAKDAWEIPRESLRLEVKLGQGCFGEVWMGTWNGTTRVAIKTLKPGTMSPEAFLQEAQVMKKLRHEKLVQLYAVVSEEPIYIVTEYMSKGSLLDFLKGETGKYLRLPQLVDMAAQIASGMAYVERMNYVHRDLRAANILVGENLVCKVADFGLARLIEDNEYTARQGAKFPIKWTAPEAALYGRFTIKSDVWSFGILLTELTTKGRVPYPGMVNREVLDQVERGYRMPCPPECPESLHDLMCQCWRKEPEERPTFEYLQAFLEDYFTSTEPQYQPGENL
Chain of EpHA2 (P29317 whole entry): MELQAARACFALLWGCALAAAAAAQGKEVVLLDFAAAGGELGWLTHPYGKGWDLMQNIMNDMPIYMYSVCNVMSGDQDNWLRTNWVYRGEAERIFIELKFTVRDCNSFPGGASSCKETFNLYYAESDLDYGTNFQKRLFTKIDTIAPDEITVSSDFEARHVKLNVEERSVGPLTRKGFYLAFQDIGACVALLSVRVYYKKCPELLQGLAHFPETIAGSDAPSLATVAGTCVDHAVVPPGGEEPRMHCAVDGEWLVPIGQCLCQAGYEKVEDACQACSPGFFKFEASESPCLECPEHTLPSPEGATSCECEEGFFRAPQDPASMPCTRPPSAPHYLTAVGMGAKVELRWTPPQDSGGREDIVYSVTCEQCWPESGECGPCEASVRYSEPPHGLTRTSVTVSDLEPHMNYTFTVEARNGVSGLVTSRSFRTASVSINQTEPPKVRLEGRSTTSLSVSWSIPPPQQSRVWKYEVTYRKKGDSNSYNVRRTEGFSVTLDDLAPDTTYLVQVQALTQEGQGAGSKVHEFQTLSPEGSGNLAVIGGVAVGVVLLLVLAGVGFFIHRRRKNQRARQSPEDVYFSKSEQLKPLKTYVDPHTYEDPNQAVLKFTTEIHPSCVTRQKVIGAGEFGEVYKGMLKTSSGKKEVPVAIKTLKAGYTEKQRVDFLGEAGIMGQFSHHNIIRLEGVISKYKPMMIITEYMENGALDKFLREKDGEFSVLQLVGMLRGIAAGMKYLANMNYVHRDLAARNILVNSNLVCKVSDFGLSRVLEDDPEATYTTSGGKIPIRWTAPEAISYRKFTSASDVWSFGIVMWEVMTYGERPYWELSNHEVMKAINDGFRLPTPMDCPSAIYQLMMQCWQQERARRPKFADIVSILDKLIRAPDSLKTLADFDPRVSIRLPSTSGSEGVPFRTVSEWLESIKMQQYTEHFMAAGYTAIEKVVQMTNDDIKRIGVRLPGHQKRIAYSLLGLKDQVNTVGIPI
Chain of CK1d (P48730 whole entry): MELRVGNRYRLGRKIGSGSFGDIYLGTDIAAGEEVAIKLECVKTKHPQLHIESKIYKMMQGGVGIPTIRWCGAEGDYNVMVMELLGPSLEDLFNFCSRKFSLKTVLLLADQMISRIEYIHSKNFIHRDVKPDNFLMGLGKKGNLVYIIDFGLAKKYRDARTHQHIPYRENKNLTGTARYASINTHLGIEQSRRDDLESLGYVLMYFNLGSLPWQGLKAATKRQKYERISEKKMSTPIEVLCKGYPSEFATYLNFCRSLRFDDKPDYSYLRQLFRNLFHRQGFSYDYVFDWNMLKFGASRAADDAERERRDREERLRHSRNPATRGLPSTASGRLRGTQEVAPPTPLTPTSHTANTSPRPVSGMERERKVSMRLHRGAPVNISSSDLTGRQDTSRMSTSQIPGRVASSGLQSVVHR

Take `CNc1ncc2cc(-c3ccccc3Cl)c(=O)n(CCCCN)c2n1` [compound 4, 8-(4-Aminobutyl)-6-(2-chlorophenyl)-2-(methylamino)pyrido[2,3-d]pyrimidin-7(8H)-one]: the ΔTm at 10 µM stood at 0.9 °C in assay [1] (read-out: dTm MR21 (4)), 2.6 °C in assay [2] (read-out: dTm MR21 (4)), 0 °C in [3] (read-out: dTm MR21 (4)) and 2.9 °C in [4] (read-out: dTm MR21 (4)).
`CNc1ncc2cc(-c3cc(Cl)ccc3Cl)c(=O)n(CCCCN)c2n1` [compound 8, 8-(4-Aminobutyl)-6-(2,5-dichlorophenyl)-2-(methylamino)pyrido[2,3-d]pyrimidin-7(8H)-one]: the ΔTm at 10 µM in assay [5] (read-out: dTm 8) is 0.6 °C; in [6] (read-out: dTm 8), 7.1 °C; in assay [7] (read-out: dTm 8) it was 1.4 °C; in assay [8] (read-out: dTm 8), 0.5 °C; in assay [9] (read-out: dTm 8), 0.3 °C.
With `CNc1ncc2cc(-c3cc(Br)ccc3Cl)c(=O)n(CCCCN)c2n1` [compound 6, 8-(4-Aminobutyl)-6-(5-bromo-2-chlorophenyl)-2-(methylamino)pyrido[2,3-d]pyrimidin-7(8H)-one], the ΔTm at 10 µM in [1] (read-out: dTm 6) was 0.4 °C; in [2] (read-out: dTm 6), 0.2 °C; in assay [3] (read-out: dTm 6) it was -0.3 °C; in assay [4] (read-out: dTm 6) it was 0.9 °C.
As for `CNc1ncc2cc(-c3ccc(-c4cccc(C)n4)cc3Cl)c(=O)n(CC3OCC(N)CO3)c2n1` (stereo not drawn) [compound 2, G-5555], the “dTm G-5555 (2)” value was 0.9 °C in assay [1] (10 µM, binder); -0.2 °C in assay [2] (10 µM, binder); -0.8 °C in assay [3] (10 µM, binder); 0.4 °C in assay [4] (10 µM, binder).
Regarding `CNc1ncc2cc(-c3cc(Cl)ccc3Br)c(=O)n(CCCCN)c2n1` [compound 10, 8-(4-Aminobutyl)-6-(2-bromo-5-chlorophenyl)-2-(methylamino)pyrido[2,3-d]pyrimidin-7(8H)-one], the ΔTm at 10 µM in assay [5] (read-out: dTm 10) is 0.6 °C; in [6] (read-out: dTm 10), 7.4 °C; in assay [7] (read-out: dTm 10) it was 0.8 °C; in [8] (read-out: dTm 10), 0.5 °C; in assay [9] (read-out: dTm 10), 0.2 °C.
Take `CNc1ncc2cc(-c3cc(F)ccc3F)c(=O)n(CCCCN)c2n1` [compound 5, 8-(4-Aminobutyl)-6-(2,5-difluorophenyl)-2-(methylamino)pyrido[2,3-d]pyrimidin-7(8H)-one]: the ΔTm at 10 µM in [1] (read-out: dTm MR22 (5)) was 0.4 °C; in assay [2] (read-out: dTm MR22 (5)), 0.7 °C; in assay [3] (read-out: dTm MR22 (5)) it was -0.4 °C; in assay [4] (read-out: dTm MR22 (5)), 1.3 °C.
Regarding `CNc1ncc2cc(-c3cc(Br)ccc3Br)c(=O)n(CCCCN)c2n1` [compound 11, 8-(4-Aminobutyl)-6-(2,5-dibromophenyl)-2-(methylamino)pyrido[2,3-d]pyrimidin-7(8H)-one], the ΔTm at 10 µM was determined as 0.4 °C in assay [5] (read-out: dTm 11); 6.4 °C in assay [6] (read-out: dTm 11); 0.9 °C in [7] (read-out: dTm 11); 0.2 °C in [8] (read-out: dTm 11); 0.2 °C in assay [9] (read-out: dTm 11).
Consider `CNc1ncc2cc(-c3cc(Br)ccc3Cl)c(=O)n(C[C@H]3OC[C@H](N)CO3)c2n1` [compound 7, 8-(((2r,5r)-5-Amino-1,3-dioxan-2-yl)methyl)-6-(5-bromo-2-chlorophenyl)-2-(methylamino)pyrido[2,3-d]pyrimidin-7(8H)-one], for which the ΔTm at 10 µM was 0.2 °C in assay [1] (read-out: dTm 7), 0.1 °C in [2] (read-out: dTm 7), -0.1 °C in assay [3] (read-out: dTm 7) and -0.1 °C in assay [4] (read-out: dTm 7).
`CNc1ncc2cc(-c3cc(C(F)(F)F)ccc3Cl)c(=O)n(CCCCN)c2n1` [compound 9, 8-(4-Aminobutyl)-6-(2-chloro-5-(trifluoromethyl)phenyl)-2-(methylamino)pyrido[2,3-d]pyrimidin-7(8H)-one]: the ΔTm at 10 µM is 0 °C in assay [5] (read-out: dTm 9); 4.8 °C in [6] (read-out: dTm 9); 0.6 °C in [7] (read-out: dTm 9); -0.5 °C in assay [8] (read-out: dTm 9); 0.1 °C in assay [9] (read-out: dTm 9).
Regarding `CNc1ncc2cc(-c3cc(F)c(-c4cccc(C)n4)cc3F)c(=O)n(CCCCN)c2n1` [compound 12, 8-(4-Aminobutyl)-6-(2,5-difluoro-4-(6-methylpyridin-2-yl)phenyl)-2-(methylamino)pyrido[2,3-d]pyrimidin-7(8H)-one], the ΔTm at 10 µM in assay [5] (read-out: dTm 12) is 1.2 °C; in assay [6] (read-out: dTm 12) it was 3.9 °C; in assay [7] (read-out: dTm 12), 0.7 °C; in assay [8] (read-out: dTm 12), -0.7 °C; in [9] (read-out: dTm 12) it was 0 °C.
